Results on eight molecules are retold here after ChEMBL document CHEMBL1201862, “PubChem BioAssay data set” (2004).

Assay in all cases: DTP human tumour cell line panel, 48 h
Assay [1] concerns SNB-75.
Assay [2] relates to OVCAR-8.
For assay [3], the system named is MDA-MB-231.
Assay [4] relates to 786-0.
Assay [5] has as its system RPMI-8226.
The subject of assay [6] is IGROV-1.
Assay [7] deals with SK-MEL-28.
The test system of assay [8] is UACC-62.
Assay [9] deals with TK-10.
The test system of assay [10] is M14.
Assay [11] concerns SK-OV-3.
Assay [12] deals with SF-295.
Assay [13] has as its system HOP-92.
Assay [14] deals with COLO 205.
In assay [15] the test system is MCF7.
Assay [16] has as its system SW-620.
The test system of assay [17] is K562.
Assay [18] deals with EKVX.
Assay [19] deals with SF-539.
The subject of assay [20] is RXF 393.

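All cell lines were grown in 96-well plates and treated with compound for 48 hours. GI50 is the concentration that inhibits growth by half.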 The source made the active and inactive calls. Rule as the data show it: active = GI50 up to about 1.1 µM and inactive = higher.

The term GI50 denotes the concentration giving 50% growth inhibition. Regarding `COC1OC(=O)C(OC)C(OC)C1OC` (centres undefined), the GI50 was > 100 µM (inactive) in [1]; 88.3 µM (inactive) in assay [2]; > 100 µM (inactive) in assay [3]; > 100 µM (inactive) in assay [4]; > 100 µM (inactive) in [5]; > 100 µM (inactive) in assay [6]. The GI50 in assay [7], in assay [8], in assay [9], in [10], in assay [11] and in assay [12] was > 100 µM (inactive) throughout. Besides, the GI50 in assay [13], in assay [14], in [15], in [16], in assay [17] and in assay [18] was > 100 µM (inactive) in each case. In addition, the GI50 in assay [19] was > 100 µM (inactive).
For the molecule `O=C(O)Cc1ccc(Oc2nc3ccccc3nc2C(=O)O)cc1`, the GI50 in [1], in [2], in [3], in assay [4], in assay [5] and in [6] was > 100 µM (inactive) each time. Besides, the GI50 in assay [7], in assay [8], in [9], in assay [10], in assay [11] and in assay [12] was > 100 µM (inactive) in each case. Also, the GI50 in assay [13] is 79.1 µM (inactive); in [14], > 100 µM (inactive); in assay [15], > 100 µM (inactive); in assay [16], > 100 µM (inactive); in [17] it was 0.0849 µM (active); in assay [18] it was > 100 µM (inactive). For the same molecule, the GI50 in assay [19] is > 100 µM (inactive).
In the case of `Cc1cc(-c2ccc(Cl)cc2)c(C#N)c(=S)n1C1OC(CO)C(O)C(O)C1O` (centres undefined), the GI50 in assay [1] was 20.1 µM (inactive); in assay [2] it was > 100 µM (inactive); in assay [3], > 100 µM (inactive); in assay [4] it was > 100 µM (inactive); in assay [6] it was > 100 µM (inactive); in [7], > 100 µM (inactive). In addition, the GI50 in assay [8], in assay [9], in [10], in assay [11], in assay [12] and in [14] was > 100 µM (inactive) in each case. Besides, the GI50 in assay [15], in assay [16], in assay [18], in assay [20] and in [19] was > 100 µM (inactive) throughout.
On to `COc1ccc(N(CN2C(=O)CCC2C(=O)O)C(C)=O)cc1` (centres undefined), for which the GI50 in assay [1], in assay [2], in [3], in assay [4], in assay [5] and in assay [7] was > 100 µM (inactive) each time. In addition, the GI50 in assay [8], in assay [9], in [10], in assay [11], in assay [12] and in [13] was > 100 µM (inactive) in each case. In addition, the GI50 in assay [14], in [15], in assay [16], in assay [17], in [18] and in assay [19] was > 100 µM (inactive) each time.
In the case of `N=C(NCc1ccccc1)N/N=C\c1ccnc2ccccc12`, the GI50 in assay [1] is 8.04 µM (inactive); in assay [2] it was 13.5 µM (inactive); in assay [3], 13.9 µM (inactive); in assay [4], 13.7 µM (inactive); in assay [5] it was 1.29 µM (inactive); in assay [7], 12 µM (inactive). In addition, the GI50 in [8] was 15.1 µM (inactive); in assay [9] it was 14.8 µM (inactive); in assay [10] it was 4.84 µM (inactive); in [11], 15.5 µM (inactive); in [12] it was 15.3 µM (inactive); in assay [13] it was 1.43 µM (inactive). The GI50 in [14] is 1.71 µM (inactive); in assay [15], 11.7 µM (inactive); in assay [16] it was 14.8 µM (inactive); in [17] it was 4.31 µM (inactive); in assay [18] it was 10 µM (inactive); in assay [19], 15.7 µM (inactive).
Regarding `CC1(C)CC(=O)C(CC(C(=O)C(=O)Nc2cc(C(F)(F)F)ccc2Cl)C(=O)c2ccco2)C(=O)C1` (centres undefined), the GI50 in [2], in assay [3], in assay [4], in assay [5], in [6] and in assay [7] was > 100 µM (inactive) in each case. Also, the GI50 in assay [8], in assay [9], in assay [10], in assay [11], in assay [12] and in [13] was > 100 µM (inactive) in each case. The GI50 in assay [14], in assay [15], in assay [16], in assay [17], in assay [18] and in assay [19] was > 100 µM (inactive) in each case.
Consider `CC(C)(C)OC(=O)CN1CCNCCN(CC(=O)OC(C)(C)C)CC1`, for which the GI50 in assay [1] was 12.8 µM (inactive); in [2] it was > 100 µM (inactive); in assay [3], > 100 µM (inactive); in assay [4], > 100 µM (inactive); in assay [5] it was > 100 µM (inactive); in assay [6] it was > 100 µM (inactive). In addition, the GI50 in assay [8], in [9], in assay [10], in [11], in [12] and in assay [13] was > 100 µM (inactive) each time. Moreover, the GI50 was > 100 µM (inactive) in assay [14]; > 100 µM (inactive) in assay [15]; 54.5 µM (inactive) in assay [17]; > 100 µM (inactive) in assay [18]; > 100 µM (inactive) in assay [19].
For the molecule `COC(=O)C1c2cc3c(c(O)c2CCC1(C)O)C(=O)c1c(O)cc2c(c1C3=O)OC1OC2(C)C(O)C(N(C)C)C1O` (centres undefined), the GI50 in assay [1] is 0.198 µM (active); in assay [2], 0.101 µM (active); in [3], 0.207 µM (active); in assay [4], 1.03 µM (active); in assay [6], 1.02 µM (active); in [7], 3.15 µM (inactive). Moreover, the concentration for 50% growth inhibition (GI50) in assay [8] is 0.421 µM (active); in assay [9], 0.369 µM (active); in assay [10], 1.75 µM (inactive); in assay [11], 1.91 µM (inactive); in assay [12], 0.382 µM (active); in assay [14] it was 0.36 µM (active). Further, the 50% growth inhibitory concentration (GI50) in assay [15] was 0.8 µM (active); in [16], 0.14 µM (active); in [17], 0.223 µM (active); in assay [18], 0.146 µM (active); in assay [20], 0.205 µM (active); in assay [19], 1.4 µM (inactive).
